Experiment [1] concerns B16F10 melanoma tumors. Description: Treatment of B16F10 melanoma tumors. To be noted: single injection of high-dose cGAMP-S (40 μg) and EP. It is filed as in vivo, mice. The method, then:
2×10^5 4 T1 or 2×10^5 B16F10 cells were subcutaneously injected to the right rear flank of BALB/c mice or C57BL/6 female mice respectively. For orthotopic 4T1 model, 2×10^5 4 T1 cells were injected into the mammary fat pad. Seven days after tumor injection, B16F10 tumor-bearing mice were divided into 6 experimental groups (n=8 for each group): untreated, 1×empty microdevices(EP), 1×cGAMP-S plus EPs, 1×collagen gel, 4×cGAMP-S, and 1×cGAMP-S plus cGAMP-MPs, respectively (FIG. 3D). For the 4×cGAMP-S group, mice were intratumorally administered with 10 μg of cGAMP in 50 μL MC solution (cGAMP-S) at days 0, 4, 8, and 11 to replicate the four doses of soluble cGAMP. The overall does of cGAMP were 40 μg per mouse throughout the treatment period. […] Tumor size was measured every other day starting at day 7 post tumor inoculation with a digital caliper. Tumor volume was calculated using the following formula: length (mm)×width^2 (mm)×0.5. […]
Mice bearing B16F10 tumors were treated with the following 4 experimental groups (n=8): untreated, 1×EPs, 3×cGAMP-S, and 1×cGAMP-S plus cGAMP-MPs, respectively (FIG. 4A). […] The protein content in the supernatant was quantified using a bicinchoninic acid protein assay kit (Thermo Fisher Scientific, MA, USA). […]

Experiment [2] deals with KPC pancreatic cancer cells. Briefly: Treatment of orthotopic pancreatic tumor model. In kind it is in vivo, mice. The conditions noted are these: 25 days; cGAMP-MPs three doses at days 0, 4, 8; cGAMP-S single high dose (30 μg) with EPs. Here is the method: A small incision was made to exteriorize the spleen and pancreas of C57BL/6 female mice. 5×10^5 KPC cells in 50 μL of PBS and Matrigel (1:1 mixture by volume) were injected into the tail of the pancreas. cGAMP-MPs (10 μg of cGAMP-S, 5 PLGA-1 microdevices containing 10 μg of cGAMP and 5 PLGA-2 microdevices containing 10 μg of cGAMP) or 1×cGAMP-S plus EPs (30m of cGAMP-S, 5 each of empty PLGA-1 and PLGA-2 microdevices) in 50 μL MC solution were also injected into the tail of the pancreas. The wound was then closed by an autoclip wound clip system. Mice were euthanized 25 days after tumor inoculation. The tumors were isolated and weighted by a balance. Metastasis to lungs was evaluated by H&E staining of lung sections.

Experiment [3] concerns 4T1 lung metastasis. Briefly: Treatment of metastatic 4T1 model. It is filed as in vivo, mice. The conditions noted are these: day 34. The method, then:
2×10^5 4 T1 cells were injected into the mammary fat pad. Seven days after injection, tumor-bearing mice were divided into 3 experimental groups: untreated, 3×cGAMP-S, and 1×cGAMP-S plus cGAMP-MPs (10m of cGAMP-S, 5 PLGA-1 microdevices containing 10 μg of cGAMP, and 5 PLGA-2 microdevices containing 10 μg of cGAMP). The primary tumor was surgically removed at day 18 to extend survival. Mice were euthanized at day 34. Lung tissues were stained with India ink and fixed in Fekete's solution. Metastatic foci on the lung were counted under a microscope. Unstained lung tissues were fixed in formalin and stained by H&E. Quantitation of metastatic tumor cells of H&E stained sections was performed using an Aperio ImageScope using tuned positive pixel count algorithm. Briefly, input hue value in the positive pixel count algorithm was tuned to positively select normal lung tissues in red to orange range, while the tumors were negatively selected in purple. Percentage area of tumor metastasis per total lung area was calculated by the number of negative counts (purple)/the number of total counts (purple, orange, and red)×100%. Three H&E sections per lung at different depths were analyzed and averaged to obtain the percentage of tumor over the lung for one mouse. Four or five mice were analyzed for each group.

Experiment [4] relates to interleukin-6 (IL-6). Briefly: Systemic IL-6 response of orthotopic 4T1 tumor-bearing mice. It is filed as in vivo. The conditions noted are these: day 1 to 7; cGAMP-MPs single injection, cGAMP-S four injections.

With `Nc1nc2c(ncn2[C@@H]2O[C@@H]3COP(=O)(O)O[C@H]4[C@@H](O)[C@H](n5cnc6c(N)ncnc65)O[C@@H]4COP(=O)(O)O[C@H]3[C@H]2O)c(=O)[nH]1` [cGAMP-S, 3′3′-cGAMP], the tumor growth result in experiment [1] is “exhibited an antitumor effect at early time points but failed to achieve sustained tumor inhibition”. In addition, the survival time in experiment [1] (untreated 21 days) was 25 days. Besides, in experiment [2], the metastasis to lungs entry is “did not show benefits” and the “primary tumor growth in the pancreas” value is recorded as “did not show benefits”. Further, the “number of metastatic foci on lung surfaces” value in experiment [3] (cGAMP-MPs single injection day 7, cGAMP-S days 7, 11, 15) was “significantly decreased”. Besides, the “relative area of tumors in the lungs” value in experiment [3] (compared to untreated) is “reduced”. Further, in experiment [4], the “systemic IL-6 levels” value is “elevated”.

These data come from patent publication US12390537B2, “Compositions of polymeric microdevices and methods of use thereof in cancer immunotherapy” (Massachusetts Institute of Technology, priority 2020, dated 2025).
